Experimental findings from patent US12257253B2, “Triamterene or nolatrexed for use in the treatment of phenylketonuria” (SOM INNOVATION BIOTECH, S.A., priority 2019, dated 2025) are described below.

What all share (assay type): cell-based
Experiment [1] has as its target T1, Arg261Gln (R261Q) PAH (Homo sapiens (Human), UniProt P00439, R261Q). The experiment in a line: Phenylalanine hydroxylase residual protein amount (dot blot, COS-7 lysates). The note with it: COS-7 cells, compound 10 μM (sepiapterin 5 μM), 48 h; read-out: PAH protein level (immune blot signal) R261Q PAH Mean. The procedure: (§1) 3. Phenylalanine Hydroxylase Residual Protein Amount
(§2) The analysis of the residual PAH protein amount was based on the method described in Gersting S. W. et al., Human Molecular Genetics, 2010, 19(10), 2039-2049 with modifications.
(§3) Detection of the residual PAH protein amount was performed as a dot blot using the lysates obtained from the cell culture where transiently transfected COS-7 cells (with wild-type PAH or PAH variant) were exposed for 48 h to compounds. The experiment was carried out from the same samples as used for measuring enzyme activities.
(§4) 2 μl of the lysate were dropped onto the nitrocellulose membrane. The membrane was allowed to air dry at room temperature for 30 min followed by 40 min blocking in 5% milk in TBS-Tween (room temperature). The membrane was incubated with the mouse monoclonal primary antibody specific for PAH (Millipore, Cat. No. MAB5278, 1:1000 dilution in 5% milk in TBS-Tween) for overnight at 4° C. Next, the membrane was washed (3×10 min in TBS-Tween) and incubated with the secondary HRP-conjugated antibody (anti-mouse antibody; Santa Cruz Biotechnology, Inc., Cat. No. sc-2005; 1:1000 dilution in 5% milk in TBS-Tween) followed by thorough washing in TBS-Tween (3×10 min) and distilled water (1×10 min). Blots were visualized with Pierce™ ECL substrate (ThermoFisher Scientific, Cat No. 32106) and chemiluminescence was monitored with a DIANA III Imaging system or ChemiDoc™ MP Imaging System (BioRad). To analyze the compound effect on the PAH protein amount densitometry analysis was performed using ImageJ Software.
(§5) The effect of compound on PAH protein amount was calculated from triplicates. As for determination of the enzyme activity the background of the not transfected cells (NT) was subtracted from the transfected cells (NCC or compound treated). In the next step delta of the NCC versus compound treated cells was calculated. Residual protein amount greater than 100% represents an increase in the stability of the enzyme with respect to NCC.

The target of experiment [2] is T2, wild-type PAH (Homo sapiens (Human), UniProt P00439). The description is as above. The note with it: COS-7 cells, compound 10 μM (sepiapterin 5 μM), 48 h; read-out: PAH protein level (immune blot signal) WT PAH Mean. Here is the method: as §1, §2, §3, §4, §5
For experiment [3], the target named is T1, Arg261Gln (R261Q) PAH. The experiment in a line: Phenylalanine hydroxylase enzyme activity assay in transfected COS7 cells. The note with it: compound 10 μM (sepiapterin 5 μM), 48 h. Here is the method:
(§6) 2. Phenylalanine Hydroxylase Enzyme Activity Assay
(§7) This assay was completed in cell culture to analyze the enzyme activity in the presence of compounds. In brief, wild-type or Arg261Gln PAH constructs were transiently expressed in COS7-cells in a 96 well format reflecting the PAH genotype (COS7 cell line has no endogenous PAH). Cells were treated with the compounds at a final concentration of 10 μM and the enzyme activity of PAH was analyzed 48 h after transfection. The effect of the compounds on the residual enzyme activity was determined in comparison to non-treated cells (NCC, only compound solvent final 0.1%). To normalize the cellular background signal non transfected cells (NT control) were treated with compound or solvent equally for 48 h. As a positive control we used sepiapterin, a stable precursor of BH4 (CAS 17094-01-8), stabilized in 100 mM DTT, in a final concentration of 5 μM.
(§8) PAH activities were assayed at 25° C. as previously described (Gersting, S. W., J. Biol. Chem., 2010, 285(40), 30686-30697) with modifications. The standard mixture contained 22.35 mM NaHepes, pH 7.0, […] catalase, 10 μM ferrous ammonium sulphate, and 1 mM L-Phe (L-phenylalanine) final. Assay mixture and cell culture enzyme were pre-incubated for 5 min and the reaction was initiated by the addition of 75 μM BH4 (stabilized in 100 mM dithiothreitol) final, run for 60 min and stopped by acetic acid. The amount of L-tyrosine production was measured and quantified by HPLC, assayed as triplicates.
(§9) The effect of compound on PAH enzyme activity was calculated from triplicates as follows: first the background of the NT cells were subtracted from the transfected cells (treated or NCC) and then the percentage of treated (compound) versus NCC was determined. Enzyme activity greater than 100% represents an increase in the enzyme activity with respect to NCC.

The target of experiment [4] is T2, wild-type PAH. Described as above. The note with it: compound 10 μM (sepiapterin 5 μM), 48 h. Here is the method: as §6, §7, §8, §9

T1 sequence (P00439 whole entry R261Q): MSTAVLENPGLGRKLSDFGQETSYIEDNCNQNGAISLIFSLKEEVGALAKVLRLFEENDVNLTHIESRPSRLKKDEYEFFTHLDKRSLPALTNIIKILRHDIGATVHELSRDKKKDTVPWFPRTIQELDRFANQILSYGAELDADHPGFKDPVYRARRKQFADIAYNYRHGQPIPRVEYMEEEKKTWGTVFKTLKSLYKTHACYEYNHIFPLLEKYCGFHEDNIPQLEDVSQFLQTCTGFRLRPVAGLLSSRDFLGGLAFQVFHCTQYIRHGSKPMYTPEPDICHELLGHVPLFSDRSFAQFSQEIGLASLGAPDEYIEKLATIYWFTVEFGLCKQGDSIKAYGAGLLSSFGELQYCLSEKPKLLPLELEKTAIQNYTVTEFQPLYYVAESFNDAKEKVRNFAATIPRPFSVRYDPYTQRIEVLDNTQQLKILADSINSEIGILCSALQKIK
T2 sequence (P00439 whole entry): as the sequence (P00439 whole entry R261Q) above, with Q261R counted along it

As for `Nc1nc(N)c2nc(-c3ccccc3)c(N)nc2n1` [Triamterene, 2,4,7-triamino-6-phenylpteridine], the PAH protein level (% of control) at 10 µM on Arg261Gln (R261Q) PAH [1] was determined as 130%; on wild-type PAH [2] it was 110%. In addition, the “PAH enzyme activity (L-Tyrosine formation) R261Q PAH Mean” value at Arg261Gln (R261Q) PAH [3] is 161.48 % NCC. At wild-type PAH [4], the “PAH enzyme activity (L-Tyrosine formation) WT PAH Mean” value was 118.98 % NCC.
